Measurements reported in patent US20250372228A1, “METHOD AND SYSTEM FOR D[…] PHARMACOKINETIC MODEL OF PROPOFOL AND DERIVATIVE THEREOF” (Xizang Haisco Pharmaceutical Co., Ltd., priority 2020, published 2025).
Like-named read-outs stand apart in the source and are kept apart here.

Assays:
[1] = Population pharmacokinetic (PopPK) three-compartment model of the propofol derivative from clinical trial plasma concentrations; type: in vivo, human; conditions: for Intercompartmental clearance between the central compartment and the peripheral compartment 1, Q2: exp(θ3); for Volume of distribution in the peripheral compartment 1, V2: exp(θ4); for Clearance between the central compartment and the peripheral compartment 2, Q3: exp(θ5); for Volume of distribution in the peripheral compartment 2, V3: exp(θ6); for relative median change of CL by total protein: total protein range not given; for Residual of venous blood collection (%): σ1; for Residual of arterial blood collection (%): σ2; for Interindividual variation of clearance, CL %: ωCL; for Interindividual variation of intercompartmental clearance between the central compartment and the peripheral compartment 1, Q2%: ωQ2; for Interindividual variation of intercompartmental clearance between the central compartment and the peripheral compartment 2, Q3%: ωQ3; for Interindividual variation of volume of distribution in the central compartment, V1%: ωV1; for Interindividual variation of volume of distribution in the peripheral compartment 2, V3%: ωV3
Description: The original data set comprises 2609 measurable plasma drug concentration data from 219 subjects (wherein 81 people receive both arterial and venous blood collection, and subjects receiving another blood collecting method are regarded as new individuals, that is, 300 individuals are included in the population analysis).
By using a stepwise backward elimination method, no influence factors are eliminated (Δ−2LL>10.83).

[2] = tested on: γ-aminobutyric acid type A (GABAA) receptor; test: Potency compared with propofol (background statement)
[3] = Free drug concentration in the aqueous phase by ultrafiltration method; type: physicochemical; conditions: same conditions and concentrations, compared with propofol (Jingan®)
Description: Propofol derivative injectable emulsion (hereinafter referred to as propofol derivative, with a chemical name of 2-[(1R)-1-cyclopropylethyl]-6-isopropyl-phenol), which is developed by Sichuan Haisco Pharmaceutical Co., Ltd. as a novel intravenous anesthetic with independent intellectual property rights, is intended to be used for sedation/anesthesia in various diagnostic examinations or treatments, induction and maintenance of general anesthesia, and sedation (ICU sedation) of intensive care subjects under mechanical ventilation. The propofol derivative, as the active ingredient, is a chemical entity similar to propofol, and is a single […] with two chiral centers of R-configuration. […] The main action mechanism of the propofol derivative is to allow for the inflow of chloride ions by enhancing an ion channel mediated by a γ-aminobutyric acid type A (GABAA) receptor, thereby achieving the inhibition of the nervous centralis. The channel is also a main target where propofol exerts its effects. The propofol derivative has the pharmacodynamic characteristics of fast onset of action and stable and rapid recovery.

[4] = for Volume of distribution in the peripheral compartment 2, V3: exp(6); for Volume of distribution in the peripheral compartment 2, V3 / Clearance between the central compartment and the peripheral compartment 2, Q3: parameter fixed (FIX); for Intercompartmental clearance between the central compartment and the peripheral compartment 1, Q2: exp(θ3); for Volume of distribution in the peripheral compartment 1, V2: exp(θ4); for Clearance between the central compartment and the peripheral compartment 2, Q3: exp(θ5); for Residual (%): σ1; for Clearance, CL %: ωCL (interindividual variation); for Volume of distribution in the central compartment, V1%: ωV1 (interindividual variation)
Description: (§1) A pharmacokinetic data set included in the analysis are determined by evaluating the clinical trial data included: • plasma drug concentration data: acquired by means of implementation of the sampling scheme (see FIG. 8); • baseline demographic characteristic data: race, age, height, weight and gender; • blood biochemical index data: blood total protein content, creatinine clearance, glutamic-oxalacetic transaminase and glutamic-pyruvic transaminase; and • blood collection sites.
(§2) Establishing the preliminary foundation model on the basis of the data processed in step 3 comprising: • (1) describing interindividual variation of the PK parameters by using the following equation:
(§3) Establishing the final foundation model on the basis of the preliminary foundation model in step 4 comprising: • (1) determining covariates included in the evaluation on the basis of clinical knowledge and a drug action mechanism: • baseline demographic characteristic covariates: baseline values for age, gender, weight and race; • blood biochemical index covariates: creatinine clearance, total protein, glutamic-oxalacetic transaminase, glutamic-pyruvic transaminase, alkaline phosphatase and total bilirubin; and • blood collection sites. • (2) establishing a final population pharmacokinetic foundation model on the basis of the covariates included in the evaluation.
(§4) Establishing the population pharmacokinetic model by adding the screened covariates on the basis of the final foundation model in step 5 comprising: • (1) Pre-screening of covariates: • analyzing the correlation between the continuous covariates and the PK parameters by using the following equation:

[5] = clinical; conditions: human, plasma, intravenous; for clearance: CL, exp(θ1); for Vd: Volume of distribution in the central compartment, V1, exp(θ2)
Description: as §1, §2, §3, §4

[6] = median of Bootstrap (2.5th to 97.5th percentiles)
[7] = typical value of final population model (95% CI)
[8] = typical value of final population model

Structure (SMILES): CC(C)c1cccc([C@H](C)C2CC2)c1O [propofol derivative, 2-[(1R)-1-cyclopropylethyl]-6-isopropyl-phenol]
- influence of age on AUC0-24 ([1]; age 19.8 to 53 years old, propofol derivative-302 trial): no influence
- influence of age on Cmax ([1]; age 19.8 to 53 years old, propofol derivative-302 trial, expected to be clinically insignificant): has an influence
- Clearance, CL ([1]; exp(θ1), median of Bootstrap (2.5th to 97.5th percentiles)): 66.4 (63.7 to 69.4) L/hr
- Volume of distribution in the central compartment, V1 ([1]; exp(θ2), median of Bootstrap (2.5th to 97.5th percentiles)): 2.48 (2.27 to 2.74) L
- Intercompartmental clearance between the central compartment and the peripheral compartment 1, Q2 [1, 6]: 57.9 (51.5 to 65.6) L/hr
- Intercompartmental clearance between the central compartment and the peripheral compartment 1, Q2 [1, 7]: 58 (50.8 to 65.1) L/hr
- Volume of distribution in the peripheral compartment 1, V2 [1, 6]: 5.74 (5.07 to 6.7) L
- Volume of distribution in the peripheral compartment 1, V2 [1, 7]: 5.77 (4.96 to 6.58) L
- Clearance between the central compartment and the peripheral compartment 2, Q3 [1, 6]: 59.1 (54.6 to 63.6) L/hr
- Clearance between the central compartment and the peripheral compartment 2, Q3 [1, 7]: 59.0 (54.5 to 63.5) L/hr
- Volume of distribution in the peripheral compartment 2, V3 [1, 6]: 78.4 (73 to 83.9) L
- Volume of distribution in the peripheral compartment 2, V3 [1, 7]: 78.3 (72.8 to 83.8) L
- relative median change of CL by total protein ([1]; first value of the pair): 6.8%
- clearance ([1]; human, plasma, intravenous, exp(θ1), typical value of final population model (95% CI), read-out: Clearance, CL (converted)): 1110 mL/min
- Vd ([1]; human, plasma, intravenous, exp(θ2), typical value of final population model (95% CI), read-out: Volume of distribution in the central compartment, V1): 2.48 L
- relative median change of CL by total protein ([1]; second value of the pair): −6.3%
- relative median change of CL by weight ([1]; weight 45 kg (lower end of range 45 kg to 90 kg)): −11.6%
- relative median change of CL by weight ([1]; weight 90 kg (upper end of range 45 kg to 90 kg)): 12.7%
- Residual of venous blood collection (%) [1, 6]: 30.5 (26.3 to 34.6) %
- Residual of venous blood collection (%) [1, 7]: 30.6 (26.6 to 34.5) %
- Residual of arterial blood collection (%) [1, 6]: 16.9 (15.7 to 18.2) %
- Residual of arterial blood collection (%) [1, 7]: 16.9 (15.8 to 18.1) %
- Interindividual variation of clearance, CL % [1, 6]: 14.3 (11.9 to 17) %
- Interindividual variation of clearance, CL % [1, 7]: 14.5 (12 to 16.9) %
- Interindividual variation of intercompartmental clearance between the central compartment and the peripheral compartment 1, Q2% [1, 6]: 29.0 (23.1 to 35.5) %
- Interindividual variation of intercompartmental clearance between the central compartment and the peripheral compartment 1, Q2% [1, 7]: 28.9 (23.1 to 34.7) %
- Interindividual variation of intercompartmental clearance between the central compartment and the peripheral compartment 2, Q3% [1, 6]: 28.8 (22.8 to 36.3) %
- Interindividual variation of intercompartmental clearance between the central compartment and the peripheral compartment 2, Q3% [1, 7]: 29.1 (23.1 to 35.1) %
- Interindividual variation of volume of distribution in the central compartment, V1% [1, 6]: 40.4 (27.7 to 54.5) %
- Interindividual variation of volume of distribution in the central compartment, V1% [1, 7]: 41.4 (28 to 54.9) %
- Interindividual variation of volume of distribution in the peripheral compartment 2, V3% [1, 6]: 30.5 (25.3 to 35.7) %
- Interindividual variation of volume of distribution in the peripheral compartment 2, V3% [1, 7]: 30.7 (25.6 to 35.8) %
- potency relative to propofol [2]: 4-5 times
- free drug concentration in the aqueous phase [3]: lower free drug concentration in the aqueous phase

Structure (SMILES): CC(C)c1cccc(C(C)C)c1O [propofol]
- influence of covariates on the pharmacokinetic parameters ([4]; covariate screening, forward and backward method): not found that covariates have a significant influence
- Volume of distribution in the peripheral compartment 2, V3 ([4]; Bootstrap column): 262, FIX(—) L
- Volume of distribution in the peripheral compartment 2, V3 [4, 8]: 262, FIX(—) L
- Intercompartmental clearance between the central compartment and the peripheral compartment 1, Q2 [4, 6]: 132 (13.0 to 200) L/hr
- Intercompartmental clearance between the central compartment and the peripheral compartment 1, Q2 [4, 7]: 142 (88.4 to 196) L/hr
- Volume of distribution in the peripheral compartment 1, V2 [4, 6]: 35.6 (1.64 to 53.3) L
- Volume of distribution in the peripheral compartment 1, V2 [4, 7]: 37.6 (25.2 to 50.0) L
- Clearance between the central compartment and the peripheral compartment 2, Q3 ([4]; Bootstrap column): 48.6, FIX(—) L/hr
- Clearance between the central compartment and the peripheral compartment 2, Q3 [4, 8]: 48.6, FIX(—) L/hr
- Residual (%) [4, 6]: 17.1 (11 to 23.1) %
- Residual (%) [4, 7]: 19.2 (12.7 to 25.7) %
- Clearance, CL % [4, 6]: 22.5 (13.6 to 30.6) %
- Clearance, CL % [4, 7]: 23.0 (14.8 to 31.1) %
- Volume of distribution in the central compartment, V1% [4, 6]: 32.4 (6.02 to 49.5) %
- Volume of distribution in the central compartment, V1% [4, 7]: 30.5 (8.11 to 52.9) %
- clearance [5, 6]: 1530 mL/min
- clearance [5, 7]: 1590 mL/min
- Vd [5, 6]: 8.92 L
- Vd [5, 7]: 9.46 L
